Read-outs that look alike come from different tables or passages of the source.
What was measured:
Human 5-HT1B receptor = target: T1, Human 5-HT1B receptor (Homo sapiens, UniProt P28222); experiment: Hit Hunter cAMP secondary messenger assay, Gi agonist mode; format: cell-based; conditions: for Curve Top (% activation) / Emax: relative to 5-HT MAX control
T1 construct: host or cells: CHO-K1 (hamster), stably transfected; cAMP Hunter cell line
Text: Methods: cAMP Secondary Messenger Pathway Assay Method.
Hit Hunter® cAMP assays were used to monitor the activation of a GPCR via Gi and Gs secondary messenger signaling in a homogenous, non-imaging assay format using DiscoverX's Enzyme Fragment Complementation (EFC) with β-galactosidase (β-Gal) as the functional reporter. The enzyme is split into two complementary portions: EA for Enzyme Acceptor and ED for Enzyme Donor. ED is fused to cAMP and in the assay competes with cAMP generated by cells for binding to a cAMP-specific antibody. Active β-Gal is formed by complementation of exogenous EA to any unbound EDcAMP.
cAMP Hunter cell lines were expanded from freezer stocks according to standard procedures. Human 5-HT1B receptor-mediated cAMP signaling was evaluated in stably transfected hamster-derived CHO-K1 cells. Cells were seeded in a total volume of 20 μL into white walled, 384-well microplates and incubated at 37° C. overnight. cAMP modulation was determined using the DiscoverX HitHunter cAMP XS+ assay.
For Gi agonist determination, cells were incubated with sample in the presence of 15 mM forskolin to induce response. Media was aspirated from cells and replaced with 10 μL HBSS/10 mM Hepes. Intermediate dilution of sample stocks was performed to generate 4× sample in assay buffer. 5 μL of 4× sample plus 5 μL of 4× forskolin was added to cells and incubated at 37° C. for 30 minutes. Final assay vehicle concentration was 1%. After compound incubation, assay signal was generated through incubation with 20 μL cAMP XS+ED/CL lysis cocktail for one hour followed by incubation with 20 μL cAMP XS+EA reagent for three hours at room temperature. Microplates were read following signal generation with a PerkinElmer Envision™ instrument for chemiluminescent signal detection.
Compound activity was analyzed using CBIS data analysis suite (ChemInnovation, CA). For Gi agonist mode assays, percentage activity is calculated using the following formula: % Activity=100%×(1−(mean RLU of test sample−mean RLU of MAX control)/(mean RLU of vehicle control−mean RLU of MAX control)).
The same human 5-HT1B receptor functional agonism assay as described above was used in a separate experiment.

rats = conditions: cited from earlier work
mice [1] = conditions: cited from earlier work
humans = conditions: cited from earlier work
[2] = test system: female mice exposed to stress and sodium nitroprusside (SNP); experiment: Stress plus sodium nitroprusside (SNP)-induced migraine mice model, von Frey facial withdrawal score; format: in vivo, C57BL/6j mice
Experimental: To evaluate the prophylactic and acute/abortive treatment effects of single administration of 5-OH-DMT to female mice exposed to stress and sodium nitroprusside (SNP) as a model of stress-primed migraine pain.
C57BL/6j mice (7-8 weeks, female) were acclimated for 1 week prior to the experiment. Mice were kept in groups of 4-5 animals per cage in a housing room with temperature maintained at 21-23° C. and 40-70% relative humidity, on a 12/12 h light:dark cycle. Chow and water were available ad libitum except during testing. […] On Day 10, von Frey testing was conducted again to confirm that mechanical withdrawal scores were similar across naïve and stress-exposed mice. Stress-exposed animals were randomized to treatment groups based on body weight and facial mechanical withdrawal score. Then, each animal was administered a 1st intraperitoneal (i.p.) injection of 5-OH-DMT (dissolved in 0.9% sterile saline and administered at 3, 10 or 30 mg/kg in a volume of 10 ml/kg) or vehicle.
On Day 11, at 24 h following the 1st injection, vehicle or 0.1 mg/kg sodium nitroprusside (SNP) was given i.p. and facial mechanical withdrawal scores were assessed 3 hours later to confirm establishment of a stress+SNP-induced hypersensitive state in Day 10 vehicle-treated animals (Groups 2-6) or, in Day 10 test article-treated […] (Groups 7-9), assess the prophylactic effect of compound administration. On Day 12, at 23 hours after vehicle or SNP injection, each animal was administered a 2nd i.p. injection of vehicle or 5-OH-DMT or sumatriptan (acute treatment positive control animals received vehicle on Day 10). One hour later, facial withdrawal scores were assessed to evaluate acute effects of treatments (Groups 2-6) or durability of prophylactic effects (Groups 7-9).
Mice were allowed to acclimate to the testing cage for 60 minutes each day before the test. To assess pain-like behaviors induced by noxious mechanical stimulation applied on the vibrissal pad (orofacial area), the mouse was placed in a small cage with a metal mesh ceiling and a wood bottom (10 cm×5 cm×5 cm). The semiparametric scoring system used to evaluate the response of the animal to the mechanical stimulation was described in detail by Vos et al. (1994). Mechanical stimulation delivered by a von Frey hair with the bending force of 0.07 g was applied bilaterally to the vibrissal pad. […] The summated score of these 8 trials was counted as the animal's response score. […]

mice [3] = conditions: cited from earlier work; remark: listed apart in the source

T1 sequence (P28222 whole entry): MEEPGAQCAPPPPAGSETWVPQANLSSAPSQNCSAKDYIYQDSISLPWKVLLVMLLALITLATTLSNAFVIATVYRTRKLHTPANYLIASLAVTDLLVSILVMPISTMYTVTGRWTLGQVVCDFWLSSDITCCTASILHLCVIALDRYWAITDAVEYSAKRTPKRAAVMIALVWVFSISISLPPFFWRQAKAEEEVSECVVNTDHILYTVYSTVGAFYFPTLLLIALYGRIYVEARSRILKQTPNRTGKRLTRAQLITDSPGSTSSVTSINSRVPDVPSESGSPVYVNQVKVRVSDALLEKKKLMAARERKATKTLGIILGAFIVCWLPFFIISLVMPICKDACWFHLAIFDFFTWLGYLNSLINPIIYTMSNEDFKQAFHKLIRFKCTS

In the case of `NCCc1c[nH]c2ccc(O)cc12` [5-HT, serotonin, reference compound], the “Curve Top (% activation)” value (Human 5-HT1B receptor; Study #1) is reported as 100.22%, the “Curve Top (% activation)” value (Human 5-HT1B receptor; Study #2) is reported as 107.54% and the “agonist activity at human 5-HT1B receptors” value (from here on “agonist activity”) (Human 5-HT1B receptor; first experiment (Study #1)) is reported as “full agonist activity”. For the same molecule, the “agonist activity” value (Human 5-HT1B receptor; second experiment (Study #2)) was “full agonist activity”.

For `COc1ccc2[nH]cc(CCN(C)C)c2c1` [5-MeO-DMT, 5-methoxy-N,N-dimethyltryptamine], the acute analgesic effects (rats) is listed as “exhibited acute analgesic effects”, the “head twitch response in mice” value (mice [1]; indicative of in vivo 5-HT2A receptor activation) is listed as “induces the head twitch response” and the “dose eliciting mouse head-twitch response” value (mice [1]; mice, i.p. or s.c.) is listed as at least 10 mg/kg. For the same molecule, the “time of initial effects” value (humans; insufflation of 10 mg) was 3 to 4 min, the “time of termination of effects” value (humans; insufflation of 10 mg) was 60 to 70 min and the “dose range with psychoactive effects” value (humans; intravenous) was 0.25 to 3.1 mg. The “dose with psychoactive effects” value (humans; oral, after pretreatment with a monoamine oxidase inhibitor (e.g., harmaline)) was 10 to 25 mg, the “dose with psychoactive effects” value (humans; oral, encapsulated) was 30 mg and the “dose range with psychoactive effects” value (humans; smoked) was 6 to 30 mg. For the same molecule, the “dose with psychoactive effects” value (humans; sublingual) was about 10 mg.

In the case of `CN(C)CCc1c[nH]c2ccc(O)cc12` [5-OH-DMT, 5-hydroxy-N,N-dimethyltryptamine], the “facial hypersensitivity vs vehicle (G2), prophylactic treatment” value ([2]; 30 mg/kg i.p. on Day 10, 24 h before SNP, tested Day 11, 3 h after SNP (G9)) is reported as “significantly reduced facial hypersensitivity”, the “facial hypersensitivity vs vehicle (G2), durability of prophylactic effect” value ([2]; 30 mg/kg i.p. on Day 10, tested Day 12 (G9)) is reported as “significantly reduced facial hypersensitivity” and the “facial hypersensitivity vs vehicle (G2), acute treatment” value ([2]; 30 mg/kg i.p. on Day 12, tested 1 h after injection #2 (G6)) is reported as “significantly reduced facial hypersensitivity”. For the same molecule, the EC50 (Human 5-HT1B receptor) was at most 1 nM, the Emax (Human 5-HT1B receptor; Study #1, read-out: Maximal activation (%)) was 104% and the “Curve Top (% activation)” value (Human 5-HT1B receptor; Study #2) was 100.41%. For the same molecule, the “agonist activity” value (Human 5-HT1B receptor; first experiment (Study #1)) was “full agonist activity”, the Emax (Human 5-HT1B receptor; read-out: Maximal activation (%), Study #2) was 96.7% and the “agonist activity” value (Human 5-HT1B receptor; second experiment (Study #2)) was “full agonist activity”. For the same molecule, the “head twitch response ED50” value (mice [1]; mice, subcutaneous) was 15 mg/kg, the “duration of short-lived aftereffects” value (humans; insufflation of 40 mg) was “up to 90 minutes” and the “time of initial effects” value (humans; insufflation of 40 mg) was 5 min. For the same molecule, the “acute anti-inflammatory and analgesic effects” value (mice [3]) was “exhibited acute anti-inflammatory and analgesic effects”.

In the case of `CNS(=O)(=O)Cc1ccc2[nH]cc(CCN(C)C)c2c1` [sumatriptan, reference compound], the “facial hypersensitivity vs vehicle (G2), acute treatment” value ([2]; sumatriptan 1 mg/kg i.p. on Day 12, tested 1 h after injection #2 (G3)) is reported as “significantly reduced facial hypersensitivity”.

Reference: patent US20230310374A1, “COMPOSITIONS AND METHODS FOR TREATING HEADACHE OR FACIAL PAIN” (priority 2021, published 2023)
